Values quoted from earlier work in patent publication US20090306452A1, “APPARATUS FOR TREATING A CONTAMINATED MEDIA WITH A SORBENT” (priority 2008, published 2009).

Conditions: log10 of concentration in octanol / concentration in water; examples of hydrophobic hazardous materials

Row | Compound | Log P
1 | Clc1cc2oc3c(Cl)cc(Cl)c(Cl)c3c2c(Cl)c1Cl [1,2,3,6,8,9-hexachloro-dibenzofuran] | about 7
2 | Clc1cc(Cl)cc(C2(CC(Cl)(Cl)Cl)CO2)c1 (stereo not shown) [2-(3,5-dichlorophenyl)-2-(2,2,2-trichloroethyl) oxirane] | about 4
3 | c1ccc2c(c1)Oc1ccccc1O2 [dibenzo (1,4) dioxin] | about 4
4 | hexafluoromethane | about 2
